Key:
[1] = tested on: phospho-eEF2; assay: Phospho-eEF2 in hippocampal slices (immunohistochemistry, Western blot); type: cell-based, mouse; details: WT hippocampal slices, DHPG 50 μM, 5 min
Protocol: Transfected HEK293T cells or cultured neurons were treated with various drugs and then harvested in IP buffer supplemented with 1% Triton X-100 buffer and Complete™ EDTA-Free protease inhibitors. Soluble fractions were diluted with 4× SDS sample buffer.
Samples were separated electrophoretically using NuPAGE 4-12% Bis-Tris gels (Invitrogen) and transferred to an Immobilon-P PVDF membrane (Millipore). The membrane was blocked with TBST (50 mM Tris, pH 7.5, with 150 mM NaCl, and 0.1% Tween-20) containing 5% non-fat milk for one hour at room temperature, followed by incubation with primary antibody in TBST buffer overnight at 4° C. After three washes with TBST buffer, membranes were incubated with HRP-conjugated anti-rabbit, or anti-mouse antibody in TBST for another hour. After three washes with TBST buffer, the membrane was treated with SuperSignal ECL substrate (Pierce) according to the manufacturer's protocol.
Immunohistochemistry of phospho-eEF2 in WT and eEF2K mice was performed as described (Ramirez-Amaya et al., J. Neurosci. 25, 1761-1768 (2005)) with slight modifications. […] The signals were visualized using the cyanine 3 (CY3) TSA fluorescence system (PerkinElmer Life Sciences), and the nuclei were stained with DAPI (Molecular Probes). No staining was detected in the absence of the primary or secondary antibodies. No phospho-eEF2 signal was detected in eEF2K KO sections.

[2] = tested on: hippocampal Schaffer collateral-CA1 synapses; assay: Field recording of fEPSP (mGluR-LTD) in acute hippocampal slices; type: cell-based, mouse; details: for DHPG-LTD (fEPSP slope): t=75 min
Protocol: For recording, slices were placed in a submersion recording chamber and perfused with 30° C. ACSF at a rate of 2 ml/min.
fEPSPs were recorded with extracellular recording electrodes (1.0 MΩ) filled with ACSF and placed in the stratum radiatum of area CA1. Synaptic responses were evoked by a 200-μsec current pulse to Schaffer collateral axons with a concentric bipolar tungsten stimulating electrode. Stable baseline responses were collected every 30 sec by using a stimulation intensity (10-30 μA) yielding 50-60% of the maximal fEPSP slope response.
mGluR-LTD was induced by a mGluR1/5 agonist, (R,S)-3,5-DHPG (Tocris), or by electrical stimulations. […] NMDAR dependent-LTD was induced by using 900 single pulses delivered at 1 Hz.

[3] = tested on: Arc mRNA in cultured neurons; assay: Real-time RT-PCR of Arc mRNA; type: cell-based; details: BDNF 10 ng/ml at 40 min; forskolin 50 μM at 20 min; DHPG at 20 and 40 min after stimulation
Protocol: RNA samples from neuronal cultures were prepared using the PARIS kit (Ambion) according to the manufacturer's protocol. Following RNA extraction, samples were treated with DNase to remove contaminating DNA prior to cDNA synthesis. Total RNA was reverse transcribed using the SuperScript II First Strand Synthesis System for RT-PCR (Invitrogen) according to the manufacturer's protocol. A negative control without reverse transcriptase was included.
Primer specificity was verified by melt curve analysis. PCR amplification of cDNA was performed using the BioRad iCycler Real-Time Detection System (BioRad Laboratories). cDNA (1 μl) was added to 24 μl of 1× reaction master mix (3 mM MgCl2, KCl, Tris-HCl, iTaq DNA polymerase, 25 units/ml SYBR Green 1, 0.2 mM each dNTPs, 10 nM fluorescein and 500 nM each gene specific primers). […]
GAPDH was used to normalize data. The threshold for detection of PCR product above background was set at 10× the standard deviation of the mean background fluorescence for all reactions. Background fluorescence was determined from cycles 1-5 prior to the exponential amplification of product and subtracted from the raw fluorescence of each reaction/cycle. […] Threshold cycle (CT; number of cycles to reach threshold of detection) was determined for each reaction.
Relative gene expression was determined using the 2^−ΔΔCT method (Livak, et al., Methods 25, 402-408 (2001)). […]

## NC(C(=O)O)c1cc(O)cc(O)c1 (racemic) [DHPG, (R,S)-3,5-DHPG]
[1]
  phospho-eEF2 level: dramatically increased
[2]; Arc KO slices, DHPG 50 μM 5 min, t=70 min
  fEPSP slope after DHPG: 92.1±3.7 % of baseline
[2]; Arc KO slices, DHPG 100 μM 5 min, t=90 min
  fEPSP slope after DHPG: 88.5±7.4 % of baseline
[2]; Arc/Fmr1 DKO slices, DHPG 50 μM 5 min
  DHPG-LTD (fEPSP slope): 85.9±4.1 % of baseline
[2]; FVB WT slices, DHPG 50 μM 5 min
  DHPG-LTD (fEPSP slope): 73.0±6.6 % of baseline
[2]; Fmr1 KO slices, DHPG 50 μM 5 min
  DHPG-LTD (fEPSP slope): 68.2±2.6 % of baseline
[2]; WT slices (littermates of Arc KO), DHPG 50 μM 5 min, t=70 min
  fEPSP slope after DHPG: 72.8±2.0 % of baseline
[2]; WT slices (littermates of eEF2K KO), DHPG 50 μM 5 min, t=90 min
  fEPSP slope after DHPG: 64.7±5.2 % of baseline
[2]; WT slices, DHPG 100 μM 5 min, t=90 min
  fEPSP slope after DHPG: 64.4±2.6 % of baseline
[2]; eEF2K KO slices, DHPG 50 μM 5 min, t=90 min
  fEPSP slope after DHPG: 108.7±3.6 % of baseline
[3]
  level of Arc mRNA: slightly increased the level of Arc mRNA

Reference: US20110183942A1, “Methods and Compositions for Treating Alzheimer's Disease” (UNIVERSITY OF MEDICINE AND DENTISTRY OF NEW JERSEY, priority 2008, published 2011)
